Experiment [1] concerns the target NAD-dependent protein deacylase sirtuin-5, mitochondrial (Homo sapiens, UniProt Q9NXA8). The experiment in a line: sirtuin-5 deacylation blockers, concentration series – biochemical, fluorescence imaging, cherry-pick, set 5, dose response (AID 720591).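 Further: desuccinylation of succinyl peptide AMC substrate read as fluorescence after trypsin release; potency of inhibitors that lower fluorescence and may act on trypsin instead.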
Experiment [2] deals with T1, Sentrin-specific protease 8 (Homo sapiens, UniProt Q96LD8).
T1 sequence (Q96LD8 whole entry): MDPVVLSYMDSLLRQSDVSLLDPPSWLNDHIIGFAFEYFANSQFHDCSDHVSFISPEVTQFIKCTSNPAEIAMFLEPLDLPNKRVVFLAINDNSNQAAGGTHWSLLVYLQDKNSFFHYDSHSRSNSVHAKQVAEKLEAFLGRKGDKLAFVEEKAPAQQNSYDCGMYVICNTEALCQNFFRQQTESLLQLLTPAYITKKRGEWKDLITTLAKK
Type of experiment: functional.

The target of experiment [3] is T2, Oxysterols receptor LXR-beta (Homo sapiens, UniProt P55055).
T2 sequence (P55055 whole entry): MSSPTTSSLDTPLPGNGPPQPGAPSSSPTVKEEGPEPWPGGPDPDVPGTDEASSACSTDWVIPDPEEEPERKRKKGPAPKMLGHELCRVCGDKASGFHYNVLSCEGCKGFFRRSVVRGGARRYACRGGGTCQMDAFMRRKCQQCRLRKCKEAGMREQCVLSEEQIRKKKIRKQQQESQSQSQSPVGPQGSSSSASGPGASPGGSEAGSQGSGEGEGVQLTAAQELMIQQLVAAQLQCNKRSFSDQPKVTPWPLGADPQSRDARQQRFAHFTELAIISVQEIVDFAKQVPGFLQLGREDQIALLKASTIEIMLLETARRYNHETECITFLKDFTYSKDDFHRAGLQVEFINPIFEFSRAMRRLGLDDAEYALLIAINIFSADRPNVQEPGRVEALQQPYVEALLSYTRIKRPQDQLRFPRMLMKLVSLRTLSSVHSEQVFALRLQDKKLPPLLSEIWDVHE
Type of experiment: functional, cell-based.

Experiment [4] addresses T3, Sentrin-specific protease 7 (Homo sapiens, UniProt Q9BQF6).
T3 sequence (Q9BQF6 whole entry): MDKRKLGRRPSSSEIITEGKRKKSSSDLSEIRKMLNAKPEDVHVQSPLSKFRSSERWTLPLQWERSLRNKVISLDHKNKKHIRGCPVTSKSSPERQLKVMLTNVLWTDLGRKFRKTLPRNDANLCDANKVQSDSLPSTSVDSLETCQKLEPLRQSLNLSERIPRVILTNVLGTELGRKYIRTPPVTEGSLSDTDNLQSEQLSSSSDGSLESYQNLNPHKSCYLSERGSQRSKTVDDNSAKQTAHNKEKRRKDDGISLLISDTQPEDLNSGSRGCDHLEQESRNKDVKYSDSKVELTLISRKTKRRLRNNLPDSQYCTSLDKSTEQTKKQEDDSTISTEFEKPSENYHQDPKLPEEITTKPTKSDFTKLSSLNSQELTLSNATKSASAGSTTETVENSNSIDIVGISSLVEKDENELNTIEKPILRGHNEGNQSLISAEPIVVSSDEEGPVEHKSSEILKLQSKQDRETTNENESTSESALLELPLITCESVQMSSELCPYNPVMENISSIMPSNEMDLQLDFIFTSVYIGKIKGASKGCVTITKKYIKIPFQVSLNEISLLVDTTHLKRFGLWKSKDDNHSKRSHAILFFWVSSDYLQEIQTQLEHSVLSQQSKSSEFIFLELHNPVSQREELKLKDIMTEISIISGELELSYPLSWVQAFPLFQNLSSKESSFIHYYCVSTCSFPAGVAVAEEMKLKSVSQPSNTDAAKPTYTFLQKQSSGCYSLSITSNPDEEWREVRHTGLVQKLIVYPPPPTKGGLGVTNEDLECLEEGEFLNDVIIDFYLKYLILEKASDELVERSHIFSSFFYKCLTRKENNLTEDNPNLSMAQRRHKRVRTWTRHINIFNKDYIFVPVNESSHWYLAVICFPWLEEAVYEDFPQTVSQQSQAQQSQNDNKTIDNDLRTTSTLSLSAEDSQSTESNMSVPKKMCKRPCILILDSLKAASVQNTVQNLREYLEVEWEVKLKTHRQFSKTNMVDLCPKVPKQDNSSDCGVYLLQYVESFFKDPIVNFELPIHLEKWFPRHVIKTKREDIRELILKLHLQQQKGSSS
It counts as functional.

For experiment [5], the target named is T2, Oxysterols receptor LXR-beta. Type of experiment: functional, cell-based. This is another data set of the same source.
The next experiment deals with T4, Caspase-3 (Homo sapiens, UniProt P42574).
T4 sequence (P42574 whole entry): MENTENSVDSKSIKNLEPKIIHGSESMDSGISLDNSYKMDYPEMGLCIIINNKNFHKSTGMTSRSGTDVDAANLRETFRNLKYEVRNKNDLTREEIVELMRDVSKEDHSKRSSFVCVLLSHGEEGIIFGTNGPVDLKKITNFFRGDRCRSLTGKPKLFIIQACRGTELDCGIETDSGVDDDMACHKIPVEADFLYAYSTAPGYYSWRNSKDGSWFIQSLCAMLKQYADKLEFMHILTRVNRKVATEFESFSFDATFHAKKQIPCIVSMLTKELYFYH
Type of experiment: functional.

The target of experiment [6] is T5, Sentrin-specific protease 6 (Homo sapiens, UniProt Q9GZR1).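 Further: Luminescence-based dose-response confirmatory assay of SENP6 inhibition, following up an ultra-high-throughput screen.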
T5 sequence (Q9GZR1 whole entry): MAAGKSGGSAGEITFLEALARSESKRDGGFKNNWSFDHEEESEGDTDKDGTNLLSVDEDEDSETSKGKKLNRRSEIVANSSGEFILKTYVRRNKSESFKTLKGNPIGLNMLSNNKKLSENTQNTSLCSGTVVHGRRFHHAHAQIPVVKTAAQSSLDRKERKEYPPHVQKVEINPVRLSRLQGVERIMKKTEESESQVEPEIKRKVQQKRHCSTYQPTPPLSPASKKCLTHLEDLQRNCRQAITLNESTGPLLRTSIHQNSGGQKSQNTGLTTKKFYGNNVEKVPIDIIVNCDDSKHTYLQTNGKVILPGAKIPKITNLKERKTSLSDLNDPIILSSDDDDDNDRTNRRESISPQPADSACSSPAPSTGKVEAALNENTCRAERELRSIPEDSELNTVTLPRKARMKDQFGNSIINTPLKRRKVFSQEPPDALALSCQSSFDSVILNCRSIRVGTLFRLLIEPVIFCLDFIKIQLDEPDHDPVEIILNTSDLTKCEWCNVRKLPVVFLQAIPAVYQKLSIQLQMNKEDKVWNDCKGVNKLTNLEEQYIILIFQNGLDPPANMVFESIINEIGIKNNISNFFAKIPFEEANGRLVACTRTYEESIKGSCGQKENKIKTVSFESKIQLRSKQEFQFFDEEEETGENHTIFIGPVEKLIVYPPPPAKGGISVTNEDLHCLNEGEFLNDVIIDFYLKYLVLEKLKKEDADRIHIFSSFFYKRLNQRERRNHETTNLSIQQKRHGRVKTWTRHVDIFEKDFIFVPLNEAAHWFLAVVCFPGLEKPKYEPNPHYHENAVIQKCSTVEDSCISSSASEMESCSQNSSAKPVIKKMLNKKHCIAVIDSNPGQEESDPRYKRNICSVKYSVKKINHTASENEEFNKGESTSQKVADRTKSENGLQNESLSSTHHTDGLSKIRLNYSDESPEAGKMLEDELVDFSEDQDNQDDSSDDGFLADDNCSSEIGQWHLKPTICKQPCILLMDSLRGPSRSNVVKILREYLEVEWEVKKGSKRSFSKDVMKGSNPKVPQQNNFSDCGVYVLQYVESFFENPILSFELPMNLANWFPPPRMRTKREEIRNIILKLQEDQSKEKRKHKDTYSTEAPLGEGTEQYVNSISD
Type of experiment: functional.

A further experiment has as its system HEK293. Nature of the experiment: cells. Type of experiment: functional, cell-based. As to conditions: Homo sapiens.
The nature of experiment [7]: viability loss in HepG2 hepatoma cells – cell-based, ATP luminescence, cherry-pick, activator set 2, cytotoxicity control, dose response (AID 1053143). Type of experiment: functional.
A short description of experiment [8]: THP-1 cell cytotoxicity, dose response, cytotoxicity control for non-replicating M. tuberculosis project (AID 489025). Type of experiment: functional.
For experiment [9], the target named is T6, Nuclear receptor subfamily 0 group B member 1 (Homo sapiens, UniProt P51843).
T6 sequence (P51843 whole entry): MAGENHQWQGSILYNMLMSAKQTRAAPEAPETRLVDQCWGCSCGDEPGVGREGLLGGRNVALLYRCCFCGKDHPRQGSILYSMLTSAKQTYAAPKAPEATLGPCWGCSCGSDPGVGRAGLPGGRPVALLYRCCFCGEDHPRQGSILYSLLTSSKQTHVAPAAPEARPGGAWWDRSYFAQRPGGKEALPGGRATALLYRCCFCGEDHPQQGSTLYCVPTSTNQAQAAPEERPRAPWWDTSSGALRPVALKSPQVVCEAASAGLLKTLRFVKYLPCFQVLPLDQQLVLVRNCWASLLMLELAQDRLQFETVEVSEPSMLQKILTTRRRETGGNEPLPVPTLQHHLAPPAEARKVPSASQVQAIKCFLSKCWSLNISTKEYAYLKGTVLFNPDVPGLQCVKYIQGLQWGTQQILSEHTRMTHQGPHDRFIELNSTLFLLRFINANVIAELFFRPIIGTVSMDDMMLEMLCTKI
The experiment in a line: Luminescence-based cell-based high throughput dose response assay for inhibitors of the orphan nuclear receptor subfamily 0, group B, member 1 (DAX1; NR0B1). [Related pubchem assays (depositor defined):AID504766, AID504790]. It counts as functional.

Experiment [10] has as its target T7, Heat shock factor protein 1 (Mus musculus, UniProt P38532).
T7 sequence (P38532 whole entry): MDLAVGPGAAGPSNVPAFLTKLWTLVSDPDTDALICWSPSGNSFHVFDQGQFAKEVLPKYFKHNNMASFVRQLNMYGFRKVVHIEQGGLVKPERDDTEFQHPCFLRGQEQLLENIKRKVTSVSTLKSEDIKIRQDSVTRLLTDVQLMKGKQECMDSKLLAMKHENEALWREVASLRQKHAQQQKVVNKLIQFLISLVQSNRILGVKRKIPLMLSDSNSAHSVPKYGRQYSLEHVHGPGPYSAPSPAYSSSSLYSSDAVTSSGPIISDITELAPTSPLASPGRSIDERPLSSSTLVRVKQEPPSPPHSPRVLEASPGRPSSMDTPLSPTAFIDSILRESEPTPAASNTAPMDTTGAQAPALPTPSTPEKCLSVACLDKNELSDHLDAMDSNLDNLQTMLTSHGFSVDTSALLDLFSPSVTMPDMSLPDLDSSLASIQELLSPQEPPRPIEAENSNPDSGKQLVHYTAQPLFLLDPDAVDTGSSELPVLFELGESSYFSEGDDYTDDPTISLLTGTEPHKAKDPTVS
The experiment in a line: decrease of HSF1-responsive luciferase luminescence – cell-based, NIH3T3, dose retest, confirmation (AID 2382).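 Further: NIH3T3 fibroblasts with HSF1-driven luciferase reporter stressed by proteasome inhibitor MG132; luminescence from HSF1-driven luciferase expression after 8 hours of MG132 stress.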 Type of experiment: functional.

The nature of experiment [11]: HepG2 cell cytotoxicity, dose response, cytotoxicity control for non-replicating M. tuberculosis project (AID 489018). Type of experiment: functional. As to conditions: Mycobacterium tuberculosis.
Experiment [12] can be described thus: Luminescence Cell-Based Dose Response HTS to Identify Activators of Luciferase Translation or Activity in H4 […] Cells. [Related pubchem assays: 1829 (Project Summary), 1814 (Primary HTS)]. It counts as functional.
A short description of experiment [13]: Vero E6 cell cytotoxicity, dose response, cytotoxicity control for non-replicating M. tuberculosis project, secondary assay (AID 492998). Type of experiment: functional, VeroE6. As to conditions: Vero C1008.
Another experiment deals with H4. Nature of the experiment: Luminescence Cell-Based Dose Response HTS to Identify Activators of 5'UTR Stem-Loop Driven Prion Protein mRNA Translation in H4 Neuroglioblastoma Cells. [Related pubchem assays: 1829 (Project Summary), 1814 (Primary HTS)]. Type of experiment: functional. The note with it: Homo sapiens.
Experiment [14] is described as follows: cytotoxicity in MITF-independent A375 cells – cell-based, CellTiter-Glo luminescence, dry powder, set 4, counter-screen for MITF inhibitor project, dose response (AID 624364).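 Further: A375 melanoma cells are MITF independent so this is a counter screen.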 Type of experiment: functional. The note with it: A-375. (ATP-based viability assays read luminescence as a measure of living cells.)
Experiment [15] in a line: viability loss in MITF-independent A375 cells – cell-based, CellTiter-Glo luminescence, dry powder, set 2, counter-screen for MITF inhibitor project, dose response (AID 624489).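 Further: actives are compounds lowering A375 viability meaning general cytotoxicity.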 It counts as functional. As to conditions: A-375.
Experiment [16] is described as follows: reduced cellular PGC1a acetyl-lysine signal – cell-based, cherry-picked samples, dose response (AID 720514).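 Further: potency may reflect raised or lowered acetylation signal.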 Type of experiment: functional.

Structures are written as SMILES. Active and inactive are the calls of the source. Some results are limits rather than exact numbers.

As a reminder, the AC50 is the concentration at which the activity in the assay is half-maximal. As a reminder, the EC50 is the concentration needed to bring the measured effect to its halfway point. For orientation: IC50 means the concentration at which inhibition is half-maximal. Broadly, the CC50 is the concentration at which the toxic effect on the cells reaches its halfway point.

NAD-dependent protein deacylase sirtuin-5, mitochondrial, sequence (Q9NXA8 whole entry): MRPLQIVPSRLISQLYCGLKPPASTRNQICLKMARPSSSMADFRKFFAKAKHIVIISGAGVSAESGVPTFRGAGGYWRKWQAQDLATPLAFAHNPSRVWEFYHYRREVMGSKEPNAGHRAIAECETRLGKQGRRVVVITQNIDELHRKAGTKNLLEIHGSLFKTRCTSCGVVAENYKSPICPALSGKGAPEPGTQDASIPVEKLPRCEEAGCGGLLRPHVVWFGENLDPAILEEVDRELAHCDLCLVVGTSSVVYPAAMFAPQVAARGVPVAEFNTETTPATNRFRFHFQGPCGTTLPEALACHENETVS

As to `CCOC(=O)Cc1csc(NC(=O)Cn2cnc3c2c(=O)n(C)c(=O)n3C)n1`, the AC50 in experiment [1] is > 30 µM (inactive).
As for `Cc1ccc(-c2n[nH]c(Nc3ccccc3)n2)cc1`, the EC50 in “cells” is > 67.5 µM (inactive).
Turning to `Cc1ccc(-c2nnc(Nc3ccccc3)[nH]2)cc1`, the IC50 in [2] is > 100 µM (inactive); in [4], 7.36 µM (active); at Caspase-3 it was 40.4 µM (active); in [6] it was > 100 µM (inactive). The EC50 in experiment [3] and in [5] was > 67.5 µM (inactive) each time.
Consider `Nc1ccccc1C(=O)NNC1=C(C(=O)C(F)(F)F)CCC1`, for which the IC50 with HEK293 was > 2.5 µM (active); in [9], > 67.5 µM (inactive). Moreover, the AC50 in experiment [7] was 26 µM (active). In addition, the results for the CC50 in [8], in experiment [11] and in [13] were 14.1 µM (active), > 20 µM (active) and > 20 µM (active), respectively. In addition, the EC50 in experiment [10] was 36.6 µM (active); in experiment [12], 39.2 µM (active); with H4 it was 21.7 µM (active).
Consider `CN1CCN(C2=C(Nc3ccccc3)C(=O)c3ccccc3C2=O)CC1`, for which the values for the AC50 in [14] and in experiment [15] were 61.7 µM (active) and 24 µM (active), respectively.
Take `C[C@@H]1CN([C@H](C)CO)C(=O)c2cccc(NC(=O)c3nc4ccccc4s3)c2O[C@@H]1CN(C)CC1CCCCC1`: the AC50 in experiment [16] is 27.1 µM (active).
